The nature of series [1]: Pharmacokinetics (bioavailability) of formulations dosed to fasted Rhesus monkeys. In kind it is in vivo. To be noted: rhesus monkey, blood, 3 fasted Rhesus monkeys. As for the experimental part: Examples of preparations of pharmaceutical formulations are provided below. Bioavailability is determined in vivo by dosing trial formulations and/or other formulations of the active pharmaceutical ingredient (API) to Rhesus monkeys (normally three monkeys per trial) at a dose of 1 mg/kg of the API and then measuring the amount of API in the serum or blood as a function of time. Comparisons are made with other formulations containing the same amount and same concentration of the API, such as a solid formulation with conventional excipients or a liquid filled gelatin capsule containing equal parts by weight of Tween 80 and Cremophor EL and varying amounts of the API. The API is any compound of Formula I to Ij, and most often is Compound H.
A formulation as described above comprised of 8.8% (w/w) Compound II, 35.2% HPMCAS-LF, 25.75% lactose monohydrate, 25.75% microcrystalline cellulose (Avicel PH 102), 3% croscarmellose sodium, 0.5% colloidal silicon dioxide, and 1% magnesium stearate was transferred to capsules (568 mg fill weight), with each capsule containing […] of Compound H. The pharmacokinetic profile of this composition was tested in a panel of 3 fasted Rhesus monkeys with a single dose of 1 mg/kg.
For comparison, a formulation containing Compound II without the polymer was made and tested, as follows. The non-polymer formulation contained 5% of Compound II, 5% SDS surfactant, 1.5% HPC-EXF, 1% croscarmellose sodium, and 87.5% lactose, and was prepared by wet granulation and used in a dry-filled capsule. The pharmacokinetic profile of this composition was measured by administering a single 1 mg/kg dose to a panel of 3 fasted Rhesus monkeys and then measuring the amount of Compound II in the blood of the monkeys for a period of at least 24 hours. […] The pharmacokinetics are not as good for the “conventional” formulation as for the polymer formulations, even though the “conventional” formulation used as a control included a surfactant.
The last 3 rows summarize pharmacokinetic data obtained by administering a single dose of the formulation at a dose of 1 mg/kg to panels of 3 fasted Rhesus monkeys and measuring the concentration of Compound II in the blood for a period of at least 24 hours. The compositions can be varied more broadly to obtain desired properties, as summarized after the table.

The conditions of series [2]: some patients who were taking torcetrapib; cited from earlier work.
For series [3] the following is noted: Phase III clinical trials, long-term outcomes study, group taking the drug compared with the control group; cited from earlier work.
Where [4] appears, read: po, 1 mg/kg, HME tablet formulation with 8% Compound II, 28% copovidone, 4% Vitamin E TPGS, single dose 1 mg/kg.
Setting [5] is: po, 1 mg/kg, HME tablet formulation with 10% Compound II, 35% copovidone, 5% Vitamin E TPGS, single dose 1 mg/kg.
[6] abbreviates: po, 1 mg/kg, HME tablet formulation with 12% Compound II, 42% copovidone, 6% Vitamin E TPGS, single dose 1 mg/kg.
Setting [7] is: po, 1 mg/kg, spray dried polymer formulation in capsules (8.8% Compound II, 35.2% HPMCAS-LF), single dose 1 mg/kg, 24 hours.
The mark [8] stands for this setting: oral, non-polymer "conventional" control formulation (5% Compound II, 5% SDS, 1.5% HPC-EXF, 1% croscarmellose sodium, 87.5% lactose), wet granulation, dry-filled capsule, single 1 mg/kg dose.

We go through two molecules from patent US8030359B2, “Polymer formulations of CETP inhibitors” (Merck Sharp & Dohme Corp., priority 2006, dated 2011).

Read-outs that look alike come from different tables or passages of the source.

As to `COc1cc(F)c(C(C)C)cc1-c1ccc(C(F)(F)F)cc1CN1C(=O)O[C@H](c2cc(C(F)(F)F)cc(C(F)(F)F)c2)[C@@H]1C` [Compound II, (4S,5R)-5-[3,5-bis(trifluoromethyl)phenyl]-3-{[4′-fluoro-5′-isopropyl-2′-methoxy-4-(trifluoromethyl)biphenyl-2-yl]methyl}-4-methyl-1,3-oxazolidin-2-one], the Cmax in series [1] (setting [4]) stood at 100 ± 10 nM; in series [1] (setting [5]), 100 ± 10 nM; in series [1] (setting [6]), 130 ± 10 nM; in series [1] (setting [7]), 120 ± 80 nM; in series [1] (setting [8]) it was 40 ± 30 nM. In addition, the Tmax was found to be 4 ± 2 h in series [1] (setting [4]); 5.3 ± 2 h in series [1] (setting [5]); 6.7 ± 1.2 h in series [1] (setting [6]); 6.7 ± 2.3 h in series [1] (setting [7]); 18.7 ± 9.2 h in series [1] (setting [8]). For the same molecule, the AUC(0-t) came to 1.73 ± 0.28 µM·h in series [1] (po, 1 mg/kg, HME tablet formulation with 8% Compound II, 28% copovidone, 4% Vitamin E TPGS, single dose 1 mg/kg, read-out: AUC (0-24 hrs)); 1.62 ± 0.27 µM·h in series [1] (po, 1 mg/kg, HME tablet formulation with 10% Compound II, 35% copovidone, 5% Vitamin E TPGS, single dose 1 mg/kg, read-out: AUC (0-24 hrs)); 2.29 ± 0.21 µM·h in series [1] (po, 1 mg/kg, HME tablet formulation with 12% Compound II, 42% copovidone, 6% Vitamin E TPGS, single dose 1 mg/kg, read-out: AUC (0-24 hrs)); 1.99 ± 1.1 µM·h in series [1] (po, 1 mg/kg, spray dried polymer formulation in capsules (8.8% Compound II, 35.2% HPMCAS-LF), single dose 1 mg/kg, 24 hours, read-out: AUC0-24).

With `CCOC(=O)N1c2ccc(C(F)(F)F)cc2[C@@H](N(Cc2cc(C(F)(F)F)cc(C(F)(F)F)c2)C(=O)OC)C[C@H]1CC` [torcetrapib], the “effect on blood pressure” value in series [2] is given as “increase blood pressure”. For the same molecule, the “mortality versus control group” value in series [3] is given as “increase in mortality”.
